Columns and labels:
[1] = target: T1, P450 1B1 (Homo sapiens, UniProt Q16678); test: Spectral binding titration with purified recombinant P450 1B1; conditions: for ΔAmax/Ks / ΔAmax: Reverse Type I binding, 1 µM P450; for ΔAmax: means ± SE
T1 sequence (Q16678 1-543): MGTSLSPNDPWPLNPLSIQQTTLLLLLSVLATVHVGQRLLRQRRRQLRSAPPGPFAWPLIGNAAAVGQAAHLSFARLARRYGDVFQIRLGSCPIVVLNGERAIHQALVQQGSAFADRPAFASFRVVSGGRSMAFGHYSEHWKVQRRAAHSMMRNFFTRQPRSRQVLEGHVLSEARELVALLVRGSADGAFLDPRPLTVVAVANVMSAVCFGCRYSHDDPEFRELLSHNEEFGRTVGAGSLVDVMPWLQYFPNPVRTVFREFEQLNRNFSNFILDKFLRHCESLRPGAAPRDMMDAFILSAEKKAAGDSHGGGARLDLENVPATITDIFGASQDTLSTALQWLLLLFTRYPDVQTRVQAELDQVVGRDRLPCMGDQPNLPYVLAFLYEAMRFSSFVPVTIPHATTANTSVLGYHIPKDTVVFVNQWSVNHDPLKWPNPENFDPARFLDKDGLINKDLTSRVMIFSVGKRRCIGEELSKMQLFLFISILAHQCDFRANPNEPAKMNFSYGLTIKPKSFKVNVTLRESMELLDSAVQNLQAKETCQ

[2] = target: T2, P450 1A1 (Homo sapiens, UniProt P04798); test: Inhibition of P450 1A1-dependent EROD activity; assay type: biochemical
T2 sequence (P04798 1-512): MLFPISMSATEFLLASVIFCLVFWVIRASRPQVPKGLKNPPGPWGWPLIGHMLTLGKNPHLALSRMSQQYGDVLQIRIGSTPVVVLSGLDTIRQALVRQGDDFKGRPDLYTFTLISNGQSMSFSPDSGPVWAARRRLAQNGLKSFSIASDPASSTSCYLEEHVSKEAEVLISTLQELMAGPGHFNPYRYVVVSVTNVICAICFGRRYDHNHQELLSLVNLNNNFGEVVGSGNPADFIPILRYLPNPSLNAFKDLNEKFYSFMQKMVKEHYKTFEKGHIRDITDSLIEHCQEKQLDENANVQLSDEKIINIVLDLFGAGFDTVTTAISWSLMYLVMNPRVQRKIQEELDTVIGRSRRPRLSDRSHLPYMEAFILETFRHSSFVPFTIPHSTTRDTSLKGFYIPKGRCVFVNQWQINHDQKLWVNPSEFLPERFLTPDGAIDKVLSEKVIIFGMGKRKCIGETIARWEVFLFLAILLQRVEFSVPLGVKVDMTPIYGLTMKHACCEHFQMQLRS

[3] = target: T3, rat liver P450 1A1 (Rattus norvegicus, UniProt P00185); assay type: binding; conditions: 1.5 µM rat P450 1A1 (low-spin); 1.25~80 µM BSC
T3 sequence (P00185 1-524): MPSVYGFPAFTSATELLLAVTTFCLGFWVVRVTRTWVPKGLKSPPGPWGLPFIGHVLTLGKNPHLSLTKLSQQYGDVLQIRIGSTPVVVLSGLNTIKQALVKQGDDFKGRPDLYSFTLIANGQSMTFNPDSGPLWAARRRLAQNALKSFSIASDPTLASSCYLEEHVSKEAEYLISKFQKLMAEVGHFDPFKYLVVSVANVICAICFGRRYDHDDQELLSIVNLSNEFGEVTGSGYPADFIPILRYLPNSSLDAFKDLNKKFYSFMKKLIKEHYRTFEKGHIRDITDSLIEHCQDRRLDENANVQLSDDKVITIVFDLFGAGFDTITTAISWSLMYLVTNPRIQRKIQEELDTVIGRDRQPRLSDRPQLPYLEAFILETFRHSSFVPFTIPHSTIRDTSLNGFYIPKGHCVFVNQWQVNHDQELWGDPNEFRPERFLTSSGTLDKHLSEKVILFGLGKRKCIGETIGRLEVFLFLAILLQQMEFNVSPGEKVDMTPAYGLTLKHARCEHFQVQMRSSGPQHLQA

[4] = target: T1, P450 1B1; test: Inhibition of P450 1B1-dependent EROD activity; assay type: biochemical
[5] = target: T4, P450 1A2 (Homo sapiens, UniProt P05177); test: Inhibition of P450 1A2-dependent EROD activity; assay type: biochemical
T4 sequence (P05177 1-516): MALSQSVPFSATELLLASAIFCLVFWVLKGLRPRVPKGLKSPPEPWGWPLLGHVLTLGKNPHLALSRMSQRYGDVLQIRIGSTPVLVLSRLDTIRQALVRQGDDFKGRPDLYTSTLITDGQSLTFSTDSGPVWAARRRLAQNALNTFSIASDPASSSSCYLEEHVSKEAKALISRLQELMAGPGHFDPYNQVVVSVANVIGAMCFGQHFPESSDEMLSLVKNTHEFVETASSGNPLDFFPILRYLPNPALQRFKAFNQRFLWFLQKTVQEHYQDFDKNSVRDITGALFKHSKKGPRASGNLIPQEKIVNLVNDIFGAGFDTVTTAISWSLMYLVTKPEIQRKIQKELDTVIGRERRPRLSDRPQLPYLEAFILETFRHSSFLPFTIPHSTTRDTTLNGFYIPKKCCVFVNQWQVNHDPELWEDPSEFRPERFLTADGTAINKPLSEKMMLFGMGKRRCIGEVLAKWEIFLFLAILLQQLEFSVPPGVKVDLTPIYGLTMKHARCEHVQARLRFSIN

[6] = target: T5, P450 2A13 (Homo sapiens, UniProt Q16696); test: Spectral binding titration with purified recombinant P450 2A13; conditions: for ΔAmax/Ks / ΔAmax: Type I binding; for ΔAmax: means ± SE
T5 sequence (Q16696 1-494): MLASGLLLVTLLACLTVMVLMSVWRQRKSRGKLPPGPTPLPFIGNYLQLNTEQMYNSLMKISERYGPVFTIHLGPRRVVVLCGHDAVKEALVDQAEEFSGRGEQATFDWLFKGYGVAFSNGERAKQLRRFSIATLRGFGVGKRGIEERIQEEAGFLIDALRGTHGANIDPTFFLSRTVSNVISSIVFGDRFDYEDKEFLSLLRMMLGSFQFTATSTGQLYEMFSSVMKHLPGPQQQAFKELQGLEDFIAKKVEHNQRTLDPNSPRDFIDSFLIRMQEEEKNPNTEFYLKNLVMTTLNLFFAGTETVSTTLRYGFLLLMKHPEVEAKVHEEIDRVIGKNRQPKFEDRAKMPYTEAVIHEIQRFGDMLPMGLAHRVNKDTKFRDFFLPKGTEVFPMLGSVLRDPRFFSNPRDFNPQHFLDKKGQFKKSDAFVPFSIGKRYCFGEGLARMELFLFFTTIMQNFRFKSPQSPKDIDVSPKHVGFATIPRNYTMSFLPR

[7] = system: P450 2A13; test: as above; conditions: Ks P450 2A6 / Ks P450 2A13

SMILES	Kd [1] [nM]	ΔAmax/Ks [1]	ΔAmax [1]	IC50 [2] [nM]	spectral changes [3]	IC50 [4] [nM]	IC50 [5] [nM]	Kd [6] [nM]	ΔAmax/Ks ([6]; 1 µM P450)	ΔAmax ([6]; 1 µM P450)	type of binding spectra ([6]; difference spectra)	Ks of P450 2A13 lower than with P450 2A6 [7] [fold]	type of binding spectra ([1]; difference spectra)	metabolism-dependent inhibition of P450 1B1 (EROD) ([4]; m-XSC 0.033, 0.083, 0.33 µM, preincubation 2 and 4 min with NADPH)	ΔAmax/Ks ([6]; as printed in text without ×10^−3)
N#C[Se]Cc1ccccc1 [BSC, benzyl selenocyanate]	5300 ± 960	3.60 × 10^−3	19 ± 0.11 × 10^−3	450 ± 38	did not show any spectral changes	270 ± 31	1300 ± 220	200 ± 21	470.00 × 10^−3	94 ± 1.5 × 10^−3	Type I	10	–	–	–
N#C[Se]Cc1cccc(C[Se]C#N)c1 [m-XSC, 1,3-phenylenebis(methylene)selenocyanate]	5700 ± 1000	3.70 × 10^−3	21 ± 1.0 × 10^−3	–	–	–	–	200 ± 15	395.00 × 10^−3	79 ± 0.91 × 10^−3	–	28	Reverse Type I	no metabolism-dependent inhibition	0.40

From PMC3156385 (Chemical research in toxicology, 2011)
